Data published in patent US6838416B2, “Herbicidal 5-benzyloxymethyl-1,2-isoxazoline derivatives” (Korea Research Institute of Chemical Technology, priority 2000, dated 2005).

Tests used:
ORYSA (3-leaf stage) = assay: Assay for herbicidal activity, paddy pots: phytotoxicity to transplanted rice seedlings; format: in vivo, Oryza sativa L.
Excerpt: (§1) To evaluate herbicidal activity against the paddy weeds in the paddy rice (ORYSA: Oryza sativa L.), the herbicidal activity of the compounds of the invention was compared to that of the compound No.109 (compound A) disclosed in U.S. Pat. […] The paddy weeds tested were ECHOR (Echinochloa crus-galli var. oryzicola), SCPJU (Scirpus juncoides ROXB), MOOVA (Monochoria vaginalis […] (Cyperus serotinus ROTTB), and SAGPY (Sagittaria pygmaea MTQ). The vessels employed were plastic pots having an area of 140 cm^2 and filled with a sandy loam soil containing 1.2% organic matter (pH 6).

ORYSA (seed) = assay: Assay for herbicidal activity, paddy pots: phytotoxicity to seeded (pregerminated) rice; format: in vivo, Oryza sativa L.
Excerpt: as §1

ECHOR (seed) = assay: Assay for herbicidal activity, paddy pots: ECHOR; format: in vivo, Echinochloa crus-galli var. oryzicola; settings: three weeks after application, 0 untreated control, 100 complete kill
Excerpt: as §1

SCPJU (seed) = assay: Assay for herbicidal activity, paddy pots: SCPJU; format: in vivo, Scirpus juncoides ROXB; settings: three weeks after application, 0 untreated control, 100 complete kill
Excerpt: as §1

MOOVA (seed) = assay: Assay for herbicidal activity, paddy pots: MOOVA; format: in vivo, Monochoria vaginalis PRESL; settings: three weeks after application, 0 untreated control, 100 complete kill
Excerpt: as §1

CYPSE (tuber) = assay: Assay for herbicidal activity, paddy pots: CYPSE; format: in vivo, Cyperus serotinus ROTTB; settings: three weeks after application, 0 untreated control, 100 complete kill
Excerpt: as §1

SAGPY (tuber) = assay: Assay for herbicidal activity, paddy pots: SAGPY; format: in vivo, Sagittaria pygmaea MTQ; settings: three weeks after application, 0 untreated control, 100 complete kill
Excerpt: as §1

[1] = 0.016 kg/ha, three weeks after application, 0 untreated control, 100 complete kill
[2] = 0.063 kg/ha, three weeks after application, 0 untreated control, 100 complete kill
[3] = 0.250 kg/ha, three weeks after application, 0 untreated control, 100 complete kill
[4] = 1.000 kg/ha, three weeks after application, 0 untreated control, 100 complete kill
[5] = 4.000 kg/ha, three weeks after application, 0 untreated control, 100 complete kill

Structure (SMILES)	ECHOR (seed) herbicidal activity, visual percentage grading (ECHOR (seed); 0.016 kg/ha)	ECHOR (seed) herbicidal activity, visual percentage grading (ECHOR (seed); 0.063 kg/ha)	ECHOR (seed) herbicidal activity, visual percentage grading (ECHOR (seed); 0.250 kg/ha)	ECHOR (seed) herbicidal activity, visual percentage grading (ECHOR (seed); 1.000 kg/ha)	ECHOR (seed) herbicidal activity, visual percentage grading (ECHOR (seed); 4.000 kg/ha)	SCPJU (seed) herbicidal activity, visual percentage grading (SCPJU (seed); 0.016 kg/ha)	SCPJU (seed) herbicidal activity, visual percentage grading (SCPJU (seed); 0.063 kg/ha)	SCPJU (seed) herbicidal activity, visual percentage grading (SCPJU (seed); 0.250 kg/ha)	SCPJU (seed) herbicidal activity, visual percentage grading (SCPJU (seed); 1.000 kg/ha)	SCPJU (seed) herbicidal activity, visual percentage grading (SCPJU (seed); 4.000 kg/ha)	MOOVA (seed) herbicidal activity, visual percentage grading (MOOVA (seed); 0.016 kg/ha)	MOOVA (seed) herbicidal activity, visual percentage grading (MOOVA (seed); 0.063 kg/ha)	MOOVA (seed) herbicidal activity, visual percentage grading (MOOVA (seed); 0.250 kg/ha)	MOOVA (seed) herbicidal activity, visual percentage grading (MOOVA (seed); 1.000 kg/ha)	MOOVA (seed) herbicidal activity, visual percentage grading (MOOVA (seed); 4.000 kg/ha)	CYPSE (tuber) herbicidal activity, visual percentage grading (CYPSE (tuber); 0.016 kg/ha)	CYPSE (tuber) herbicidal activity, visual percentage grading (CYPSE (tuber); 0.063 kg/ha)	CYPSE (tuber) herbicidal activity, visual percentage grading (CYPSE (tuber); 0.250 kg/ha)	CYPSE (tuber) herbicidal activity, visual percentage grading (CYPSE (tuber); 1.000 kg/ha)	CYPSE (tuber) herbicidal activity, visual percentage grading (CYPSE (tuber); 4.000 kg/ha)	further results
Cc1ccsc1C1=NOC(C)(COCc2ccccc2F)C1 (centres unmarked) [EXAMPLE 6, 5-(2-fluorobenzyl)oxymethyl-5-methyl-3-(4-methylthiophene-5-yl)-1,2-isoxazoline]	20%	100%	100%	100%	100%	20%	80%	80%	100%	100%	0%	70%	80%	80%	100%	100%	100%	100%	100%	100%	ORYSA (3-leaf stage) phytotoxicity, visual percentage grading (ORYSA (3-leaf stage); [1]): 0%; ORYSA (3-leaf stage) phytotoxicity, visual percentage grading (ORYSA (3-leaf stage); [2]): 20%; ORYSA (3-leaf stage) phytotoxicity, visual percentage grading (ORYSA (3-leaf stage); [3]): 20%; ORYSA (3-leaf stage) phytotoxicity, visual percentage grading (ORYSA (3-leaf stage); [4]): 30%; ORYSA (3-leaf stage) phytotoxicity, visual percentage grading (ORYSA (3-leaf stage); [5]): 30%; ORYSA (seed) phytotoxicity, visual percentage grading (ORYSA (seed); [1]): 0%; ORYSA (seed) phytotoxicity, visual percentage grading (ORYSA (seed); [2]): 40%; ORYSA (seed) phytotoxicity, visual percentage grading (ORYSA (seed); [3]): 100%; ORYSA (seed) phytotoxicity, visual percentage grading (ORYSA (seed); [4]): 100%; ORYSA (seed) phytotoxicity, visual percentage grading (ORYSA (seed); [5]): 100%; SAGPY (tuber) herbicidal activity, visual percentage grading (SAGPY (tuber); 0.016 kg/ha): 0%; SAGPY (tuber) herbicidal activity, visual percentage grading (SAGPY (tuber); 0.063 kg/ha): 0%; SAGPY (tuber) herbicidal activity, visual percentage grading (SAGPY (tuber); 0.250 kg/ha): 0%; SAGPY (tuber) herbicidal activity, visual percentage grading (SAGPY (tuber); 1.000 kg/ha): 30%; SAGPY (tuber) herbicidal activity, visual percentage grading (SAGPY (tuber); 4.000 kg/ha): 30%
CC1(COCc2c(F)cccc2F)CC(c2ccc(Br)s2)=NO1 (centres unmarked) [EXAMPLE 11, 5-(2,6-difluorobenzyl)oxymethyl-5-methyl-3-(2-bromothiophene-5-yl)-1,2-isoxazoline]	20%	70%	100%	100%	100%	0%	0%	20%	30%	80%	30%	50%	90%	100%	100%	0%	0%	40%	100%	100%	ORYSA (3-leaf stage) phytotoxicity, visual percentage grading (ORYSA (3-leaf stage); in vivo): 0%; SAGPY (tuber) herbicidal activity, visual percentage grading (SAGPY (tuber); 0.016 kg/ha): 0%; SAGPY (tuber) herbicidal activity, visual percentage grading (SAGPY (tuber); 0.063 kg/ha): 0%; SAGPY (tuber) herbicidal activity, visual percentage grading (SAGPY (tuber); 0.250 kg/ha): 0%; SAGPY (tuber) herbicidal activity, visual percentage grading (SAGPY (tuber); 1.000 kg/ha): 30%; SAGPY (tuber) herbicidal activity, visual percentage grading (SAGPY (tuber); 4.000 kg/ha): 50%
CC1(COCc2cccc(F)c2)CC(c2sccc2Br)=NO1 (centres unmarked) [EXAMPLE 18, 5-(3-fluorobenzyl)oxymethyl-5-methyl-3-(4-bromothiophene-5-yl)-1,2-isoxazoline]	0%	60%	100%	100%	100%	0%	10%	100%	100%	100%	0%	100%	100%	100%	100%	0%	40%	70%	100%	100%	ORYSA (3-leaf stage) phytotoxicity, visual percentage grading (ORYSA (3-leaf stage); in vivo): 0%; ORYSA (seed) phytotoxicity, visual percentage grading (ORYSA (seed); in vivo): 100%; SAGPY (tuber) herbicidal activity, visual percentage grading (SAGPY (tuber); 0.016 kg/ha): 0%; SAGPY (tuber) herbicidal activity, visual percentage grading (SAGPY (tuber); 0.063 kg/ha): 0%; SAGPY (tuber) herbicidal activity, visual percentage grading (SAGPY (tuber); 0.250 kg/ha): 0%; SAGPY (tuber) herbicidal activity, visual percentage grading (SAGPY (tuber); 1.000 kg/ha): 0%; SAGPY (tuber) herbicidal activity, visual percentage grading (SAGPY (tuber); 4.000 kg/ha): 20%
Cc1ccc(C2=NOC(C)(COCc3cccc(F)c3)C2)s1 (centres unmarked) [EXAMPLE 3, 5-(3-fluorobenzyl)oxymethyl-5-methyl-3-(2-methylthiophene-5-yl)-1,2-isoxazoline]	20%	55%	100%	100%	100%	0%	20%	40%	60%	100%	20%	50%	60%	80%	100%	0%	40%	90%	100%	100%	SAGPY (tuber) herbicidal activity, visual percentage grading (SAGPY (tuber); 0.016 kg/ha): 0%; SAGPY (tuber) herbicidal activity, visual percentage grading (SAGPY (tuber); 0.063 kg/ha): 0%; SAGPY (tuber) herbicidal activity, visual percentage grading (SAGPY (tuber); 0.250 kg/ha): 0%; SAGPY (tuber) herbicidal activity, visual percentage grading (SAGPY (tuber); 1.000 kg/ha): 50%; SAGPY (tuber) herbicidal activity, visual percentage grading (SAGPY (tuber); 4.000 kg/ha): 40%
